Laboratory results reported in US12275731B2, “Azaindole inhibitors of wild-type and mutant forms of LRRK2” (DANA-FARBER CANCER INSTITUTE, INC., priority 2018, dated 2025).

What was measured:
Assay in all cases: KinomeScan profiling
Type in all cases: binding
[1] = target: T1, EPHA8 (Homo sapiens, UniProt P29322); conditions: EPHA8, 1 μM; read-out: % control
T1 sequence (P29322 28-1005): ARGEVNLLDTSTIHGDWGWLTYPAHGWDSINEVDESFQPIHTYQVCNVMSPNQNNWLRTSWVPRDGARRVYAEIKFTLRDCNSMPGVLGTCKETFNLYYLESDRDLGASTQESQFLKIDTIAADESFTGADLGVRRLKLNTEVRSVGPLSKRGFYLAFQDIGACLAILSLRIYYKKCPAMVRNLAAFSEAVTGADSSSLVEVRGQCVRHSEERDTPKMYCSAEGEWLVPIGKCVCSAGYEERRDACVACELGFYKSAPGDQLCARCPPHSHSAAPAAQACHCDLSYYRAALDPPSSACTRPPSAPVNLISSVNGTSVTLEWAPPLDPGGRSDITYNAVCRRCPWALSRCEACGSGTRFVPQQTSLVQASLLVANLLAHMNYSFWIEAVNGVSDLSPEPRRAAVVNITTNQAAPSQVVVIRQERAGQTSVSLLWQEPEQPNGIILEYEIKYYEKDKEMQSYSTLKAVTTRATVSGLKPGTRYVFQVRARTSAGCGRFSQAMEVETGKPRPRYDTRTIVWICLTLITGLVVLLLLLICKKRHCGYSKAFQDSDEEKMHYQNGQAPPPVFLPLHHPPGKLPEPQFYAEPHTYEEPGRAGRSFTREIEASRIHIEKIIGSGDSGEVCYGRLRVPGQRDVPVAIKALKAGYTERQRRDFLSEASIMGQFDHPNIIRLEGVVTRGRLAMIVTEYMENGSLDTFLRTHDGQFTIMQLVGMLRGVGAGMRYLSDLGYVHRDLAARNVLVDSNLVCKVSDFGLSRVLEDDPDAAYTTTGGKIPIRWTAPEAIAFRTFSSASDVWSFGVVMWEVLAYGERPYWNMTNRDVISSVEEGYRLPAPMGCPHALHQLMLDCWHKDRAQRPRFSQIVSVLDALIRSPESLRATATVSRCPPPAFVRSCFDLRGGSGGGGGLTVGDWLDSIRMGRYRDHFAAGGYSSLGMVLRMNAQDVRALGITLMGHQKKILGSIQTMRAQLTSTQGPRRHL
Method in brief: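 Selectivity was assessed by binding competition at 1 μM against 468 kinases. Values below 35% of control define an interaction.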

[2] = target: p38-beta (Homo sapiens, UniProt Q15759); conditions: read-out: % control
Method in brief: (§1)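 1 μM cpd in DMSO; 468-kinase panel; readout RLU. % ctrl = (cpd − pos ctrl)/(neg ctrl − pos ctrl) ×100. Pos ctrl = 0%, DMSO = 100%. Hit cut-off <35%.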

[3] = target: T2, NEK10 (Homo sapiens, UniProt Q6ZWH5); conditions: NEK10, 1 μM; read-out: % control
T2 sequence (Q6ZWH5 1-1172): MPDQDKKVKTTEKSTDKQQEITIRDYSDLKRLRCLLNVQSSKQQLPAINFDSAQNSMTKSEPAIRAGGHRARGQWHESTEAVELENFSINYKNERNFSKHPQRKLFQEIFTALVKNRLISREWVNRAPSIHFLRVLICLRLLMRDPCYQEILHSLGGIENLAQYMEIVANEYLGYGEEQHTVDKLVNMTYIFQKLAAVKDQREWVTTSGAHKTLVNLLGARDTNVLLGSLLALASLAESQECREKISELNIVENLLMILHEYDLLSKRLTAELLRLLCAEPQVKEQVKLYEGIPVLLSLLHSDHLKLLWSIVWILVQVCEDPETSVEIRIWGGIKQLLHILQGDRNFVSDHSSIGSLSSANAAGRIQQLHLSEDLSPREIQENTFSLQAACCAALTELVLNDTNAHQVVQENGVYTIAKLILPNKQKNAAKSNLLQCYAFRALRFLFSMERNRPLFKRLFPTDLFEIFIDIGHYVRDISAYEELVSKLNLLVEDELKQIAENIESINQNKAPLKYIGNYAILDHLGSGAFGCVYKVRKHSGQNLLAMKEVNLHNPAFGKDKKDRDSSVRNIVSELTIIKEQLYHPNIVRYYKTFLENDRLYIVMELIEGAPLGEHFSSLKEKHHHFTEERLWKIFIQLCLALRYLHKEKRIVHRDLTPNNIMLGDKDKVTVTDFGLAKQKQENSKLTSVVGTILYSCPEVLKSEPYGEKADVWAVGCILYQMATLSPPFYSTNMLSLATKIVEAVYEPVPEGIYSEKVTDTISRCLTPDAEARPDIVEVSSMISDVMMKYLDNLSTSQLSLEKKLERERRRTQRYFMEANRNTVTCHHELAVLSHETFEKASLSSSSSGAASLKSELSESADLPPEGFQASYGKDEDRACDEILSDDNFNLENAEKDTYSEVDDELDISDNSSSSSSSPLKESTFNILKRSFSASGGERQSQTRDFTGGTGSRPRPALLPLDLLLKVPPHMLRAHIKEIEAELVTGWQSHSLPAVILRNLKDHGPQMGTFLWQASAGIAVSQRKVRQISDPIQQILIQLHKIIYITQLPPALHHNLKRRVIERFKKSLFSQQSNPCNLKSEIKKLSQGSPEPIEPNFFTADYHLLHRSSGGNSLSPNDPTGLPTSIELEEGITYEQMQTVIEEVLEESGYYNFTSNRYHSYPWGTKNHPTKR
Method in brief: as §1

p38-beta, sequence (Q15759 whole entry): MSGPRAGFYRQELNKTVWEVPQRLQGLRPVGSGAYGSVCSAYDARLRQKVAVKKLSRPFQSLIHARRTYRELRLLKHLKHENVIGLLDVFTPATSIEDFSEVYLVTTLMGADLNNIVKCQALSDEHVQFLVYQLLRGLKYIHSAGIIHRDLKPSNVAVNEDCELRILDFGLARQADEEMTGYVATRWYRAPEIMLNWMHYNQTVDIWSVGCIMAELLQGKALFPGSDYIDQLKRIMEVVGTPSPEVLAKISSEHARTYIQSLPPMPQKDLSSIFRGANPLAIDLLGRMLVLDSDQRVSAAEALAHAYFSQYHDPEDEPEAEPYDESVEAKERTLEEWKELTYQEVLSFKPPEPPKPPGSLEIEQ

Question: `CNc1c(-c2cnn([C@H]3CCN(C(C)=O)C[C@@H]3F)c2)cnc2[nH]cc(Cl)c12` [Compound 77, 1-((3S,4S)-4-(4-(3-chloro-4-(methylamino)-1H-pyrrolo[2,3-b]pyridin-5-yl)-1H-pyrazol-1-yl)-3-fluoropiperidin-1-yl)ethan-1-one] was tested. Which remaining binding at 1 µM [1] did it give?
Answer: 94%

Question: What about the remaining binding at 1 µM [2] of the same compound?
Answer: 95%

Question: What about the remaining binding at 1 µM [3] of the same compound?
Answer: 100%

Question: How did the remaining binding at 1 µM [1] turn out when `O=C(c1ccc(-c2cnc3[nH]cc(Cl)c3c2NC2CCCC2)cc1)N1CCC(N2CCOCC2)CC1` [Compound 101, (4-(3-chloro-4-(cyclopentylamino)-1H-pyrrolo[2,3-b]pyridin-5-yl)phenyl)(4-morpholinopiperidin-1-yl)methanone] was run?
Answer: 93%

Question: What about the remaining binding at 1 µM [2] of the same compound?
Answer: 92%

Question: What about the remaining binding at 1 µM [3] of the same compound?
Answer: 100%

Question: What does the source list for `CNc1c(-c2ccc(C(=O)N3CCC(N4CCOCC4)CC3)cc2)cnc2[nH]cc(Cl)c12` [Compound 96, (4-(3-chloro-4-(methylamino)-1H-pyrrolo[2,3-b]pyridin-5-yl)phenyl)(4-morpholinopiperidin-1-yl)methanone]?
Answer: remaining binding at 1 µM [1]: 96%; remaining binding at 1 µM [2]: 58%; remaining binding at 1 µM [3]: 100%
